Where two headings read alike, the source gives them in different places.
Target: Escherichia coli DNA gyrase A/B tetramer (Escherichia coli (strain K12), UniProt P0AES4+P0AES6)
Test: DNA gyrase supercoiling activity fluorescence polarisation assay
Format: biochemical
Summary of the method: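 Supercoiling reactions quenched with 40 nM 5′-BODIPY-FL triplex-forming oligonucleotide probe in pH 3.5 NaCl/sodium acetate buffer; after 60 min, fluorescence anisotropy read (ex 485/em 535 nm). IC50 by nonlinear regression, normalised to 0.8% DMSO (100% activity) and 5 μM ciprofloxacin (0% activity).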

[1] = 5 nM enzyme, relaxed plasmid, 0.3 mM ATP, ambient temperature, read-out: E. coli DNA gyrase supercoiling IC50

Row | Compound | IC50 [1] [nM] | IC50 [nM]
1 | C[C@@H]1CN2c3c(cc4c(-c5ccnnc5)noc4c3Cl)CC3(C(=O)NC(=O)NC3=O)[C@H]2[C@H](C)O1 (relative stereo) [Example 45, (2R,4S,4aS)-rel-11-chloro-2,4-dimethyl-8-(pyridazin-4-yl)-1,2,4,4a-tetrahydro-2′H,6H-spiro[1,4-oxazino[4,3-a][1,2]oxazolo[4,5-g]quinoline-5,5′-pyrimidine]-2′,4′,6′(1′H,3′H)-trione] | 1600 | –
2 | COCCNc1nccc(-c2noc3c(F)c4c(cc23)CC2(C(=O)NC(=O)NC2=O)[C@H]2[C@H](C)O[C@H](C)CN42)n1 [Example 170, (2R,4S,4aS)-11-fluoro-8-(2-(2-methoxyethylamino)pyrimidin-4-yl)-2,4-dimethyl-2,4,4a,6-tetrahydro-1H,1′H-spiro[isoxazolo[4,5-g][1,4]oxazino[4,3-a]quinoline-5,5′-pyrimidine]-2′,4′,6′(3′H)-trione] | 700 | –
3 | COCc1noc2c(Cl)c3c(cc12)CC1(C(=O)NC(=O)NC1=O)[C@H]1[C@H](C)O[C@H](C)CN31 (relative stereo) [Example 49, (2R,4S,4aS)-rel-11-chloro-8-(methoxymethyl)-2,4-dimethyl-1,2,4,4a-tetrahydro-2′H,6H-spiro[1,4-oxazino[4,3-a][1,2]oxazolo[4,5-g]quinoline-5,5′-pyrimidine]-2′,4′,6′(1′H,3′H)-trione] | 1700 | –
4 | C[C@@H]1CN2c3c(cc4c(CO)noc4c3F)CC3(C(=O)NC(=O)NC3=O)[C@H]2[C@H](C)O1 (relative stereo) [Example 185, (2R,4S,4aS)-rel-11-fluoro-8-(hydroxymethyl)-2,4-dimethyl-2,4,4a,6-tetrahydro-1H,1′H-spiro[isoxazolo[4,5-g][1,4]oxazino[4,3-a]quinoline-5,5′-pyrimidine]-2′,4′,6′(3′H)-trione] | – | 1400
5 | CCCN(C)c1noc2c(F)c3c(cc12)CC1(C(=O)NC(=O)NC1=O)[C@H]1[C@H](C)O[C@H](C)CN31 (relative stereo) [Example 50, (2R,4S,4aS)-rel-11-fluoro-2,4-dimethyl-8-[methyl(propyl)amino]-1,2,4,4a-tetrahydro-2′H,6H-spiro[1,4-oxazino[4,3-a][1,2]oxazolo[4,5-g]quinoline-5,5′-pyrimidine]-2′,4′,6′(1′H,3′H)trione] | 500 | –
6 | C[C@@H]1CN2c3c(cc4c(-c5cncnc5)noc4c3Cl)CC3(C(=O)NC(=O)NC3=O)[C@H]2[C@H](C)O1 (racemic) [Example 44, (2R,4S,4 aS)-rel-11-chloro-2,4-dimethyl-8-(pyrimidin-5-yl)-1,2,4,4a-tetrahydro-2′H,6H-spiro[1,4-oxazino[4,3-a][1,2]oxazolo[4,5-g]quinoline-5,5′-pyrimidine]-2′,4′,6′(1′H,3′H)-trione] | 1000 | –
7 | C[C@@H]1CN2c3c(cc4c(C5CC5)noc4c3Cl)CC3(C(=O)NC(=O)NC3=O)[C@H]2[C@H](C)O1 (racemic) [Example 39, (2R,4S,4 aS)-rel-11-chloro-8-cyclopropyl-2,4-dimethyl-1,2,4,4a-tetrahydro-2′H,6H-spiro[1,4-oxazino[4,3-a][1,2]oxazolo[4,5-g]quinoline-5,5′-pyrimidine]-2′,4′,6′(1′H,3′H)-trione] | 600 | –
8 | Cc1cc(C)n(-c2noc3c(F)c4c(cc23)CC2(C(=O)NC(=O)NC2=O)[C@H]2[C@H](C)O[C@H](C)CN42)n1 (relative stereo) [Example 63, (2R,4S,4aS)-rel-8-(3,5-dimethyl-1H-pyrazol-1-yl)-11-fluoro-2,4-dimethyl-1,2,4,4a-tetrahydro-2′H,6H-spiro[1,4-oxazino[4,3-a][1,2]oxazolo[4,5-g]quinoline-5,5′-pyrimidine]-2′,4′,6′(1′H,3′H)-trione] | 2700 | –
9 | C[C@@H]1CN2c3c(cc4c(OC(=O)OC(C)(C)C)noc4c3F)CC3(C(=O)NC(=O)NC3=O)[C@H]2[C@H](C)O1 (relative stereo) [Example 102, tert-butyl(2R,4S,4aS)-rel-11-fluoro-2,4-dimethyl-2′,4′,6′-trioxo-1,1′,2,3′,4,4′,4a,6′-octahydro-2′H,6H-spiro[isoxazolo[4,5-g][1,4]oxazino[4,3-a]quinoline-5,5′-pyrimidin]-8-yl carbonate] | – | 2700
10 | C[C@@H]1CN2c3c(cc4c(-c5ccccc5)noc4c3F)CC3(C(=O)NC(=O)NC3=O)[C@H]2[C@H](C)O1 (relative stereo) [Example 3, (2R,4S,4aS)-rel-11-fluoro-2,4-dimethyl-8-phenyl-1,2,4,4a-tetrahydro-2′H,6H-spiro[isoxazolo[4,5-g][1,4]oxazino[4,3-a]quinoline-5,5′-pyrimidine]-2′,4′,6′(1′H,3′H)-trione] | 400 | –
11 | COC[C@@H]1CN2c3c(cc4c(C)noc4c3F)CC3(C(=O)NC(=O)NC3=O)[C@H]2[C@H](C)O1 (relative stereo) [Example 106, (2S,4S,4aS)-rel-11-fluoro-2-(methoxymethyl)-4,8-dimethyl-1,2,4,4a-tetrahydro-2′H,6H-spiro[1,4-oxazino[4,3-a][1,2]oxazolo[4,5-g]quinoline-5,5′-pyrimidine]-2′,4′,6′(1′H,3′H)-trione] | 1100 | –
12 | C[C@@H]1CN2c3c(cc4c(-c5ccccn5)noc4c3Cl)CC3(C(=O)NC(=O)NC3=O)[C@H]2[C@H](C)O1 (relative stereo) [Example 38, (2R,4S,4aS)-rel-11-chloro-2,4-dimethyl-8-(pyridin-2-yl)-1,2,4,4a-tetrahydro-2′H,6H-spiro[1,4-oxazino[4,3-a][1,2]oxazolo[4,5-g]quinoline-5,5′-pyrimidine]-2′,4′,6′(1′H,3′H)-trione] | 800 | –
13 | C[C@@H]1CN2c3c(cc4c(C(=O)N5CC(F)(F)C5)noc4c3F)CC3(C(=O)NC(=O)NC3=O)[C@H]2[C@H](C)O1 [Example 95(a), (2R,4S,4aS)-8-(3,3-difluoroazetidine-1-carbonyl)-11-fluoro-2,4-dimethyl-2,4,4a,6-tetrahydro-1H,1′H-spiro[isoxazolo[4,5-g][1,4]oxazino[4,3-a]quinoline-5,5′-pyrimidine]-2′,4′,6′(3′H)-trione] | 1000 | –
14 | COc1noc2c(F)c3c(cc12)CC1(C(=O)NC(=O)NC1=O)[C@H]1[C@H](C)O[C@H](C)CN31 (relative stereo) [Example 51, (2R,4S,4aS)-rel-11-fluoro-8-methoxy-2,4-dimethyl-1,2,4,4a-tetrahydro-2′H,6H-spiro[1,4-oxazino[4,3-a][1,2]oxazolo[4,5-g]quinoline-5,5′-pyrimidine]-2′,4′,6′(1′H,3′H)-trione] | 1000 | –
15 | C[C@@H]1CN2c3c(nc4c(-c5cnccn5)noc4c3Cl)CC3(C(=O)NC(=O)NC3=O)[C@H]2[C@H](C)O1 (relative stereo) [Example 110, (2R,4S,4aS)-rel-11-chloro-2,4-dimethyl-8-(pyrazin-2-yl)-2,4,4a,6-tetrahydro-1H,1′H-spiro[isoxazolo[4,5-g][1,4]oxazino[4,3-a][1,5]naphthyridine-5,5′-pyrimidine]-2′,4′,6′(3′H)-trione] | 3000 | –
16 | C[C@@H]1CN2c3c(nc4c(C(=O)NCc5cccc(C#N)c5)noc4c3Cl)CC3(C(=O)NC(=O)NC3=O)[C@H]2[C@H](C)O1 (relative stereo) [Example 133, (2R,4S,4aS)-rel-11-chloro-N-(3-cyanobenzyl)-2,4-dimethyl-2′,4′,6′-trioxo-2,2′,3′,4,4a,4′,6,6′-octahydro-1H,1′H-spiro[isoxazolo[4,5-g][1,4]oxazino[4,3-a][1,5]naphthyridine-5,5′-pyrimidine]-8-carboxamide] | 13000 | –
17 | C[C@@H]1CN2c3c(cc4c(C(=O)NC5CN(C)C5)noc4c3F)CC3(C(=O)NC(=O)NC3=O)[C@H]2[C@H](C)O1 (relative stereo) [Example 159, (2R,4S,4aS)-rel-11-fluoro-2,4-dimethyl-N-(1-methylazetidin-3-yl)-2′,4′,6′-trioxo-2,2′,3′,4,4a,4′,6,6′-octahydro-1H,1′H-spiro[isoxazolo[4,5-g][1,4]oxazino[4,3-a]quinoline-5,5′-pyrimidine]-8-carboxamide] | 1400 | –
18 | Cc1noc2c(Cl)c3c(cc12)CC1(C(=O)NC(=O)NC1=O)[C@H]1[C@H](C)O[C@H](C)CN31 (relative stereo) [Example 7, (2R,4S,4aS)-rel-11-chloro-2,4,8-trimethyl-1,2,4,4a-tetrahydro-2′H,6H-spiro[1,4-oxazino[4,3-a][1,2]oxazolo[4,5-g]quinoline-5,5′-pyrimidine]-2′,4′,6′(1′H,3′H)-trione] | 400 | –
19 | C[C@@H]1CN2c3c(cc4c(C5CCOCC5)noc4c3F)CC3(C(=O)NC(=O)NC3=O)[C@H]2[C@H](C)O1 (relative stereo) [Example 100, (2R,4S,4aS)-rel-11-fluoro-2,4-dimethyl-8-(tetrahydro-2H-pyran-4-yl)-2,4,4a,6-tetrahydro-1H,1′H-spiro[isoxazolo[4,5-g][1,4]oxazino[4,3-a]quinoline-5,5′-pyrimidine]-2′,4′,6′(3′H)-trione] | 4100 | –
20 | COCC(COC)(COC)NC(=O)c1noc2c(F)c3c(cc12)CC1(C(=O)NC(=O)NC1=O)[C@H]1[C@H](C)O[C@H](C)CN31 (relative stereo) [Example 163, (2R,4S,4aS)-rel-N-(1,3-dimethoxy-2-(methoxymethyl)propan-2-yl)-11-fluoro-2,4-dimethyl-2′,4′,6′-trioxo-2,2′,3′,4,4a,4′,6,6′-octahydro-1H,1′H-spiro[isoxazolo[4,5-g][1,4]oxazino[4,3-a]quinoline-5,5′-pyrimidine]-8-carboxamide] | 17000 | –
21 | C[C@@H]1CN2c3c(cc4c(-c5cnc(N6CCOCC6)cn5)noc4c3F)CC3(C(=O)NC(=O)NC3=O)[C@H]2[C@H](C)O1 [Example 166(b), (2R,4S,4aS)-11-fluoro-2,4-dimethyl-8-(5-morpholinopyrazin-2-yl)-2,4,4a,6-tetrahydro-1H,1′H-spiro[isoxazolo[4,5-g][1,4]oxazino[4,3-a]quinoline-5,5′-pyrimidine]-2′,4′,6′(3′H)-trione] | 6900 | –

Source: patent US9040528B2, “Chemical compounds 542” (AstraZeneca AB, priority 2008, dated 2015)
